Assay results as given in patent US20260374739A1, “SMALL MOLECULAR WEIGHT CHEMICAL COMPOUND TO ANTAGONIZE EPH-EPHRIN TETRAMERIZATION AND INHIBIT BIDIRECTIONAL SIGNALING” (THE BOARD OF REGENTS OF THE UNIVERSITY OF TEXAS SYSTEM, priority 2022, published 2026).
pIC50: −log10 of the molar value. “And” between values parts separate entries of the source, which are not always exact repeats. Identical values can stand only once. Like-named read-outs stand apart in the source and are kept apart here.

What was measured:
[1] = biological target: T1, EphA3-EphrinA1 (Homo sapiens, UniProt P29320); assay: Octet, immobilized human EphA3 binding to human EphrinA1; settings: for pIC50: immobilized human EphA3, 50 nM soluble human EphrinA1
T1 sequence (P29320 21-541 limits assumed): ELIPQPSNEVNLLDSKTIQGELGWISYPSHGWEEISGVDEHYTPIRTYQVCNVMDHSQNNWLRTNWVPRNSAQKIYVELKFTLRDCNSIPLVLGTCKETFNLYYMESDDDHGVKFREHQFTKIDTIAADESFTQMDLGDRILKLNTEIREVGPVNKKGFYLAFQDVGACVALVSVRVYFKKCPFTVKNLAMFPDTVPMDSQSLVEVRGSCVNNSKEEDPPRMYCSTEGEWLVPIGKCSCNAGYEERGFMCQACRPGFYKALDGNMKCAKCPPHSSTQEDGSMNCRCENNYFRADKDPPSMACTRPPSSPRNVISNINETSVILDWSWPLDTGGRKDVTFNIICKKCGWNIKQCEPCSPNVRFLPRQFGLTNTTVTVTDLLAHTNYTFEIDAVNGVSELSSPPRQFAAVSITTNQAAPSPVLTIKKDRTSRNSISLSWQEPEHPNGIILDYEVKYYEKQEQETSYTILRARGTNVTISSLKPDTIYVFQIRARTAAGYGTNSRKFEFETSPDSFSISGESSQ
Procedure: (§1) The Octet system was used to probe the interactions of epitope-tagged human A class proteins, focusing on immobilized EphA3 binding to two of its cognate ligands, EphrinA1 and EphrinA5, as well as EphB2 binding to EphrinA5 (FIG. 27). […] Focusing on the dimerization-driven EphA3-EA5 interaction first (green sensorgram trace), which mimics what is disclosed above for EphB4-EB2, the initial binding of soluble EphrinA5 to the immobilized EphA3 is very fast and strong with a long and steep 84° slope of response that then quickly bends around 35 sec into the association step to form a more gradual tetramerization accumulation slope. […] However, again like the EphB4-EB2 interaction, once placed into dissociation, a significant fraction of the bound EA5 protein melts quickly and the off phase continues downward with a slow gradual decline in bound protein. Although the dissociation was for only 500 sec, the continued downward slope of the response indicates most of the bound EA5 protein would eventually melt off of the immobilized EphA3 protein. This is referred to as a classic dimerization-driven interaction, fast and strong initial binding in the association step but with most of the bound protein coming off in the dissociation due to lack of formation of stable tetramers. EphA3 interacts with EphrinA1 with totally different kinetics/dynamics (orange sensorgram trace). Here, the initial high 84° dimerization slope phase is extremely brief (5 sec) with the binding quickly snapping into a linear tetramerization accumulation phase with a 25° slope, and that once placed into dissociation step almost no bound protein melts, just the small amount that would represent dimer interactions falling off in the first few seconds after being placed into dissociation. […] EphB2 interacting with EA5 is similar to the EphA3-EA1 interaction, in that the association step is characterized by a very brief (5 sec) high 84° slope phase that quickly bends into a more gradual tetramer accumulation phase (blue sensorgram trace). […] The strong initial off phase of the EphB2-EA5 complexes in the dissociation represents both the melting of weak dimers and of the relatively weaker affinity tetramers formed by the cross A/B class EphB2-EA5 molecules.
(§2) While there is no effect of A20 on the initial 5 sec fast EphA3-EA1 dimer phase, there is a very strong effect of compound on tetramer accumulation. It was estimated that >70% of the EphA3-EA1 binding interaction can be attributed to the tetramer which is effectively disrupted by compound, with very little binding activity attributed to the dimer and more accurately the dimerization:tetramerization ratio of this interaction is 10:90 not 30:70. […] Since this is a dimerization-driven type interaction (dimerization:tetramerization ratio of here is 72:28), the overall effect of compound on this interaction is muted.

[2] = biological target: T2, EphA3-EphrinA5 (Homo sapiens, UniProt P29320); assay: Octet, immobilized human EphA3 binding to human EphrinA5
T2 sequence (P29320 21-541 limits assumed): T1 sequence (P29320 21-541 limits assumed)
Procedure: as §1, §2

[3] = biological target: T3, EphB2-EphrinB2 (Mus musculus, UniProt P54763); assay: Octet, immobilized mouse EphB2 binding to mouse EphrinB2; settings: for pIC50: immobilized mouse EphB2, 50 nM soluble mouse EphrinB2
T3 sequence (P54763 19-543 limits assumed): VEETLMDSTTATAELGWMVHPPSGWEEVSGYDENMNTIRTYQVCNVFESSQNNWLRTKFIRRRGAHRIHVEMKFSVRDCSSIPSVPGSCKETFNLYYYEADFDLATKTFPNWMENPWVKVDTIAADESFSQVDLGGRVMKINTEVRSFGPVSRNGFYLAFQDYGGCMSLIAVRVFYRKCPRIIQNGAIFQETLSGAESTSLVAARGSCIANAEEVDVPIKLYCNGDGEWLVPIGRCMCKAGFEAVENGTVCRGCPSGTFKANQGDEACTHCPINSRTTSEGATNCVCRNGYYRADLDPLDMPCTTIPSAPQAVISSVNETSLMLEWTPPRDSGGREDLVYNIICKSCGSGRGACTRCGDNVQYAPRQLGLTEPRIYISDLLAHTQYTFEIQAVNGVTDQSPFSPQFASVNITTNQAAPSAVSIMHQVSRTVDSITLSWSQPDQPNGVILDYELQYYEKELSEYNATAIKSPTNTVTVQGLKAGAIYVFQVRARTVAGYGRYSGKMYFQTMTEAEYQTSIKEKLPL
Text: The novel compound A20-I is a halogen replacement that changes the 7-bromine in A20 for iodine and had enhanced tetramerization inhibitor activity (FIGS. 38A-38D). This is evident when comparing results of A20-I and A20 salt compounds on the interaction of immobilized mouse EphB2 ectodomain binding to soluble mouse EphrinB2 ectodomain (FIG. 38A and FIG. 38B) or soluble human EphrinA5 (FIG. 38C). […] During these interactions of immobilized EphB ectodomains binding to soluble EphrinB2, the tetramer is much more surmountable by addition of an active compound than for the reverse experiment where EphrinB2 is immobilized and EphB2 is the soluble component in the assay (see FIG. 11, FIG. 17, and FIG. 25A-FIG. 25C). It is believed that the more resistant unsurmountable tetramer formed by immobilized EphrinB2 binding to soluble EphB ectodomains provides for the most rigorous test for determining IC50 values and thus utilizing this EphrinB2-EphB2 assay for analysis of all compounds, provide uniformity in observed results. The results described herein with A20-I and using the human EphrinB2-EphB2 interaction indicates replacements can be made in the 7-bromine in A20 that lead to enhanced tetramerization inhibitor activity.

[4] = Human EphA3-EphrinA1, association, absolute, read-out: Absolute Association IC50
[5] = Human EphA3-EphrinA1, association, relative, read-out: Relative Association IC50
[6] = Human EphA3-EphrinA1, dissociation, absolute, read-out: Absolute Dissociation IC50
[7] = Human EphA3-EphrinA1, dissociation, relative, read-out: Relative Dissociation IC50
[8] = Human EphA3-EphrinA5, immobilized human EphA3, 50 nM soluble human EphrinA5, association, absolute, read-out: Absolute Association IC50
[9] = Human EphA3-EphrinA5, immobilized human EphA3, 50 nM soluble human EphrinA5, association, relative, read-out: Relative Association IC50
[10] = Human EphA3-EphrinA5, immobilized human EphA3, 50 nM soluble human EphrinA5, dissociation, relative, read-out: Relative Dissociation IC50
[11] = Absolute Association IC50, mEphB2-mEphrinB2, association, absolute
[12] = Absolute Dissociation IC50, mEphB2-mEphrinB2, dissociation, absolute
[13] = Relative Association IC50, mEphB2-mEphrinB2, association, relative
[14] = Relative Dissociation IC50, mEphB2-mEphrinB2, dissociation, relative
[15] = Absolute Association IC50, Human EphA3-EphrinA1, association, absolute
[16] = Relative Association IC50, Human EphA3-EphrinA1, association, relative
[17] = Human EphA3-EphrinA5, immobilized human EphA3, 50 nM soluble human EphrinA5, dissociation, absolute, read-out: Absolute Dissociation IC50
[18] = Relative Dissociation IC50, Human EphA3-EphrinA1, dissociation, relative

SMILES	pIC50 [1, 4]	pIC50 [1, 5]	pIC50 [1, 6]	pIC50 [1, 7]	pIC50 [2]	pIC50 [2, 8]	pIC50 [2, 9]	pIC50 [2, 10]	pIC50 [3, 11]	pIC50 [3, 12]	pIC50 [3, 13]	pIC50 [3, 14]	pIC50 [1, 16]	pIC50 [2, 17]	other results
Oc1ccc(CN2CCOCC2)c2cccnc12 [Compound 1, 5-(morpholinomethyl)quinolin-8-ol]	5.08	5.20	5.17	5.62	5.49	4.00	> 6.00	5.91	4.00	5.00	4.96	6.05			
Oc1c(Cl)cc(CN2CCOCC2)c2cccnc12 [Compound 4, 4-((7-chloro-8-hydroxyquinolin-1-ium-5-yl)methyl)morpholin-4-ium chloride]			6.05	6.05	6.27	4.89	6.00		5.37	6.05	6.03	6.20	6.05	6.21	pIC50 [1, 15]: 5.74
Oc1c(Br)cc(CN2CCOCC2)c2cccnc12 [Compound 5, 7-bromo-5-(morpholinomethyl)quinolin-8-ol]															inhibition at 1 µM ([1]; 1 μM, read-out: tetramers lost): ~50%; loss of tetramer formation ([1]; 100 μM): near complete loss of tetramer formation; loss of tetramer accumulation ([2]; 1 μM): striking maximized loss of tetramer accumulation
Oc1c(Br)cc(CN2CCOCC2)c2cccnc12 [Compound 6, 4-((7-bromo-8-hydroxyquinolin-1-ium-5-yl)methyl)morpholin-4-ium chloride]			5.70		6.43	4.00	6.28		5.53	6.17	5.98	6.30	5.14	6.28	
Oc1c(I)cc(CN2CCOCC2)c2cccnc12 [Compound 7, 7-iodo-5-(morpholinomethyl)quinolin-8-ol]															elimination of tetramer ([3]; 100 μM): eliminated all tetramer species
Oc1c(I)cc(CN2CCOCC2)c2cccnc12 [Compound 8, 4-((8-hydroxy-7-iodoquinolin-1-ium-5-yl)methyl)morpholin-4-ium chloride]	6.35 and 5.84	6.72 and 6.15	5.92 and 5.82	6.34 and 5.94	6.44	< 5.80	6.30		6.16 and 5.89	6.33 and 6.29	6.52 and 6.39	6.60 and 6.29		6.32	
O=[N+]([O-])c1cc(CN2CCOCC2)c2cccnc2c1O [Compound 10, 4-((8-hydroxy-7-nitroquinolin-1-ium-5-yl)methyl)morpholin-4-ium chloride]		5.08		5.37	5.35	4.00	5.60	6.10	> 5.00	> 5.00	> 5.00	> 5.00			pIC50 [1, 15]: 4.85; pIC50 ([1]; Absolute Dissociation IC50, Human EphA3-EphrinA1, dissociation, absolute): 5.20
O=S1(=O)CCN(Cc2ccc(O)c3ncccc23)CC1 [Compound 15, 4-((8-hydroxyquinolin-1-ium-5-yl)methyl)thiomorpholin-4-ium 1,1-dioxide chloride]	4.00		4.53		5.68	4.00	< 6.00	> 6.00	4.00	5.19	5.20	6.00	4.91		pIC50 [1, 18]: 5.22
Oc1ccc(CN2CCN(Cc3ccc(C(F)(F)F)cc3)CC2)c2cccnc12 [Compound 48, 5-((4-(4-(trifluoromethyl)benzyl)piperazin-1-yl)methyl)quinolin-8-ol]	4.00	4.00	5.03		5.36	4.00	5.49		4.00	5.09	4.92	5.67		5.20	pIC50 [1, 18]: 5.28
